The target in experiment [1] is T1, 17-beta-hydroxysteroid dehydrogenase type 3 (Homo sapiens, UniProt P37058).
T1 sequence (P37058 whole entry): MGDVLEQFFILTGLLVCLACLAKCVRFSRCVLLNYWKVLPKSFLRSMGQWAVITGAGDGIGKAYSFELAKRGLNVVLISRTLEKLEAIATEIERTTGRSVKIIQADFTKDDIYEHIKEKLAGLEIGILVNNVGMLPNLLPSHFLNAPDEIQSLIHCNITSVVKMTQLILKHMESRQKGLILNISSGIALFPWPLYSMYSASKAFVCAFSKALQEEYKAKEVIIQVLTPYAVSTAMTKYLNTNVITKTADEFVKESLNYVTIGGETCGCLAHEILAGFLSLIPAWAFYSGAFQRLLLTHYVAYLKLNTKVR
Description: Inhibition of human 17beta-HSD3 expressed in HeLa cells assessed as conversion of 4-androstene-3,17-dione to testosterone. It counts as cell-based.

Experiment [2] deals with T2, Glucocorticoid receptor (Homo sapiens) (UniProt P04150).
T2 sequence (whole entry): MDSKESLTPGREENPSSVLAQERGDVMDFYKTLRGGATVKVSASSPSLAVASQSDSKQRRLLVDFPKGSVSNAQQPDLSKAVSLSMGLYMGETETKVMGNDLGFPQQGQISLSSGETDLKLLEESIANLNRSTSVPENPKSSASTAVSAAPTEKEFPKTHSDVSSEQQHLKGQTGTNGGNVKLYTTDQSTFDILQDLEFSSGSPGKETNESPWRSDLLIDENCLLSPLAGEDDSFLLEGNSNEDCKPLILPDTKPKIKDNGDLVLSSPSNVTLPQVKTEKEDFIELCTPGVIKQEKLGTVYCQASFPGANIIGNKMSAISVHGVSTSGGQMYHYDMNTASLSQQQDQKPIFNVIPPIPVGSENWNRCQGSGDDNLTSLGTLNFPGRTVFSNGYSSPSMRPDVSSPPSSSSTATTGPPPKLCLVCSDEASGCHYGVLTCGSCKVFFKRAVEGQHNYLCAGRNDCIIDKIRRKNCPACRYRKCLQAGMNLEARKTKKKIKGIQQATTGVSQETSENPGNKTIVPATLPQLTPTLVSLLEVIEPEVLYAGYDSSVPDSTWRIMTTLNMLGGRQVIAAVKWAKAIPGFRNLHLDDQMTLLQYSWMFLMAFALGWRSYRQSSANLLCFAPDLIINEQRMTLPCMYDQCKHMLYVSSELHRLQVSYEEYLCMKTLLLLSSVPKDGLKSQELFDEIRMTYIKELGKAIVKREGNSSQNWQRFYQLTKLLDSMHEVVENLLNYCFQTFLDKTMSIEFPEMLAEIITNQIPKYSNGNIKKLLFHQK
As to the kind of experiment: Agonist activity at glucocorticoid receptor by transcriptional reporter gene assay. It is filed as functional. Background: Reporter assays use an easily measured gene product as a stand-in for the process of interest.

Experiment [3] is described as follows: Inhibition of 17beta-HSD3 in marmoset testes homogenate. It is filed as tissue-based, Callitrichinae sp., Testis.
In experiment [4] the target is T3, Androgen receptor (Homo sapiens) (UniProt P10275).
T3 sequence (whole entry): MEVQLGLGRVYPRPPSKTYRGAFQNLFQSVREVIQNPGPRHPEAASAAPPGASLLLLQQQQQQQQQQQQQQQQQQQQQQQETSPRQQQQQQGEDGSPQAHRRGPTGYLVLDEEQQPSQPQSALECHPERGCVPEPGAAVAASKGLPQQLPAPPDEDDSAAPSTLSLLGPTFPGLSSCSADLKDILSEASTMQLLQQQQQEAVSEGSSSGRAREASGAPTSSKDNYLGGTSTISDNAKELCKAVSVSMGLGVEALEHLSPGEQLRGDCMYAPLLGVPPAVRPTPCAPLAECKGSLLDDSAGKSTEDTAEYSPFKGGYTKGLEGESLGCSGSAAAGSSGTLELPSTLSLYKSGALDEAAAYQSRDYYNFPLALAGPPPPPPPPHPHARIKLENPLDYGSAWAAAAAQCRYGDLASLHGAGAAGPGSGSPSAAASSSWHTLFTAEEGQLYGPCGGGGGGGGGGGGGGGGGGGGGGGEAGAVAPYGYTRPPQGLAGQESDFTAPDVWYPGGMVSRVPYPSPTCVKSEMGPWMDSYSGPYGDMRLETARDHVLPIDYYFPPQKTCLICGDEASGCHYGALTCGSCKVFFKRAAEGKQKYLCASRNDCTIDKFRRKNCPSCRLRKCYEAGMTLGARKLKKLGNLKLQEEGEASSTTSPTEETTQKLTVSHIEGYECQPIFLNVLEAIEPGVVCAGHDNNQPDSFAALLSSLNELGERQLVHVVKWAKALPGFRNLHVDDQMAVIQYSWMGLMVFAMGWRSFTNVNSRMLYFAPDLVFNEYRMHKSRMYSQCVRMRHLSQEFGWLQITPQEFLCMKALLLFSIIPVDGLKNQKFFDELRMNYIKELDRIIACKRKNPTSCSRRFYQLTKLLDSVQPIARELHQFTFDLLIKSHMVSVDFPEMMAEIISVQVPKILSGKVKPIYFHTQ
As to the kind of experiment: Antagonist activity at androgen receptor by transcriptional reporter gene assay. It is filed as functional.

For experiment [5], the target named is T2, Glucocorticoid receptor (Homo sapiens). Description: Antagonist activity at glucocorticoid receptor by transcriptional reporter gene assay. It counts as functional.
Experiment [6] has as its target T4, 17-beta-hydroxysteroid dehydrogenase type 3 (Homo sapiens) (UniProt P37058).
T4 sequence (whole entry): T1 sequence (P37058 whole entry)
Conditions: HeLa, 10 uM.
Description: Inhibition of human 17beta-HSD3 activity expressed in HeLa cells assessed as conversion of 4-androstene-3,17-dione to testosterone at 10 uM

Experiment [7] addresses T5, 17-beta-hydroxysteroid dehydrogenase type 1 (Homo sapiens) (UniProt P14061).
T5 sequence (whole entry): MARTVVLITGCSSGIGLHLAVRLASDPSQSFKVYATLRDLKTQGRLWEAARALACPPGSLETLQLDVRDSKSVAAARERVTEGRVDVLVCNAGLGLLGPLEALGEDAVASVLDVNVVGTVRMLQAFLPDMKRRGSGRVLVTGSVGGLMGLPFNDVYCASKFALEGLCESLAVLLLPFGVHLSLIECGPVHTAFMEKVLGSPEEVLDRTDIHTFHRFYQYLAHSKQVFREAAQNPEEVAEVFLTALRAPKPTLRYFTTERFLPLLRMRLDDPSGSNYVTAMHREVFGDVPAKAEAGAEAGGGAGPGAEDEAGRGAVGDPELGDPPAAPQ
As to the kind of experiment: Inhibition of 17beta-HSD1 expressed in HeLa cells assessed as conversion of estrone into estradiol. It is filed as cell-based.

The target of experiment [8] is T6, 17-beta-hydroxysteroid dehydrogenase type 3 (Mus musculus, UniProt P70385).
T6 sequence (P70385 whole entry): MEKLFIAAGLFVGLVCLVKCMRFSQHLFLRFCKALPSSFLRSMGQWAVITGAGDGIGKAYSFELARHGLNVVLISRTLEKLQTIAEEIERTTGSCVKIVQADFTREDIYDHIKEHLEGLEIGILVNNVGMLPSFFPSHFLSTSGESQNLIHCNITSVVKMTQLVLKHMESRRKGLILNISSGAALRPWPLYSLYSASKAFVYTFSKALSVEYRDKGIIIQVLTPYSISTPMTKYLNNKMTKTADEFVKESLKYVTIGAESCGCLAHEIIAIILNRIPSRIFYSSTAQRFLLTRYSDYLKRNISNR
Description: Inhibition of 17beta-HSD3 in mouse testes homogenate. It counts as tissue-based, Testis.

The target in experiment [9] is T3, Androgen receptor (Homo sapiens). As to the kind of experiment: Agonist activity at androgen receptor by transcriptional reporter gene assay. It is filed as functional.
In experiment [10] the target is T7, 17-beta-hydroxysteroid dehydrogenase type 2 (Homo sapiens) (UniProt P37059).
T7 sequence (whole entry): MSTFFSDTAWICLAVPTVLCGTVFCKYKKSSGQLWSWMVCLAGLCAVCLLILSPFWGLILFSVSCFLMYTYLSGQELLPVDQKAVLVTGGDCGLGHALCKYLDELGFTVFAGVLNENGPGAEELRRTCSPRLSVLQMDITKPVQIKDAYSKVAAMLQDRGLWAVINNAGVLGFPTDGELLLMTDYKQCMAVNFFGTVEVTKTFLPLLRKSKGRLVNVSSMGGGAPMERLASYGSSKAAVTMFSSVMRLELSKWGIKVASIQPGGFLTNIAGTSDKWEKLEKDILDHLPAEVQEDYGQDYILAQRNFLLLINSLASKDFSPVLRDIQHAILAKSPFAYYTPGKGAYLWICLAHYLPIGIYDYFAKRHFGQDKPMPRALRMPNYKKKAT
Description: Inhibition of 17beta-HSD2 expressed in HeLa cells assessed as conversion of estrone into estradiol. It is filed as cell-based.

For experiment [11], the target named is T1, 17-beta-hydroxysteroid dehydrogenase type 3. As to the kind of experiment: Inhibition of 17beta-HSD3 in human testes homogenate. It is filed as tissue-based, Testis.
Experiment [12] has as its target T8, Estrogen receptor (Homo sapiens) (UniProt P03372).
T8 sequence (whole entry): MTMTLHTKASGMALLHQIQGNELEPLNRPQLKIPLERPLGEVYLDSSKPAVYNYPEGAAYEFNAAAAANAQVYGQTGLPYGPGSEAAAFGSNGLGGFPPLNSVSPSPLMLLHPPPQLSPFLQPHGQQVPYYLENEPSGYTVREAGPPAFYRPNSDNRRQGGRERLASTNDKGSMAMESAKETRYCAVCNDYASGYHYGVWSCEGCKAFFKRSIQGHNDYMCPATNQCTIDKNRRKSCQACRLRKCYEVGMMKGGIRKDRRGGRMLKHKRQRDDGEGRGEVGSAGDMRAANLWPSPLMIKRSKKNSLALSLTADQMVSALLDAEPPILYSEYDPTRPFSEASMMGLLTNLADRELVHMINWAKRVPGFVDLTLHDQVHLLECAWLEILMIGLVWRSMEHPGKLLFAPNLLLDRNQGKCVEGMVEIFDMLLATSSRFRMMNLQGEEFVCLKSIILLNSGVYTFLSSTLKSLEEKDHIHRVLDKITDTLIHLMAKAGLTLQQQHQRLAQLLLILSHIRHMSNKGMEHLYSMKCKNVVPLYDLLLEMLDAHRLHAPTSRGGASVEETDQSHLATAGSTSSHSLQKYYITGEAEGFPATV
Description: Agonist activity at ERalpha by transcriptional reporter gene assay. It is filed as functional.

For experiment [13], the target named is T8, Estrogen receptor (Homo sapiens). As to the kind of experiment: Antagonist activity at ERalpha by transcriptional reporter gene assay. It is filed as functional.

Calls of active or inactive are those of the source. The rule behind the calls is not given here.

In the case of `COc1ccc(N2C(=O)/C(=C/c3ccc(O)c(Br)c3)OC2=S)cc1`, in [1] (read-out: IC50), the IC50 (usually the concentration needed to halve the response being measured) is 0.013 µM.

As to `COc1ccc(-n2cnn(Cc3ccc(O)c(Br)c3)c2=O)cc1`, the IC50 in [1] (read-out: IC50) worked out at 5.7 µM.

On to `COc1ccc(N2C(=O)N/C(=C\c3ccc(O)c(Br)c3)C2=O)cc1`, for which the half-maximal inhibitory concentration (IC50) result in experiment [1] (hela) is recorded as “Not Active”.

Take `COc1ccc(N2C(=O)OC(Cc3ccc(O)c(Br)c3)C2=O)cc1` (configuration not stated): in experiment [1] (read-out: IC50), the 50% inhibitory concentration (IC50) was found to be 0.3 µM.

Regarding `COc1ccc(N2C/C(=C/c3ccc(O)c(Br)c3)OC2=O)cc1`, the IC50 in [1] (read-out: IC50) worked out at 0.67 µM.

Regarding `COc1ccc(N2C(=O)O/C(=C\c3ccc(O)c(Br)c3)C2=O)cc1`, in experiment [1] (read-out: IC50), the IC50 was determined as 0.023 µM.

In the case of `COc1ccc(N2C(=O)/C(=C/c3ccc(O)c(Br)c3)SC2=S)cc1`, the outcome in [2], in [4], in [5], in experiment [9], in experiment [12] and in experiment [13] was inactive. For the same compound, the concentration for half-maximal inhibition (IC50) is 0.0006 µM in experiment [3], 0.014 µM in [1] (read-out: IC50), 0.04 µM in [8] and 0.006 µM in experiment [11]. In experiment [6], the inhibition (as a rule, how much of the control response was suppressed) was 23%. Moreover, the inhibition entry in experiment [7] and in experiment [10] was “inactive” in each case.

Regarding `COc1ccc(N2C(=O)S/C(=C\c3ccc(O)c(Br)c3)C2=O)cc1`, in [1] (read-out: IC50), the 50% inhibitory concentration (IC50) stood at 0.09 µM.

With `COc1ccc(-n2cc(Cc3ccc(O)c(Br)c3)sc2=O)cc1`, the IC50 in [1] (read-out: IC50) stood at 0.57 µM.

For `COc1ccc(N2C(=O)/C(=C/c3ccc(O)c(Br)c3)N(C)C2=O)cc1`, the IC50 result in experiment [1] (hela) is on record as “Not Active”.
